Measured values published in the OligoGym collection.
Where “and” joins values, the source holds several entries; their conditions need not be identical. Identical values can stand only once. After the bases stand the sugars from the 5' end (letter, count) and the backbone: PS all phosphorothioate, else s phosphorothioate and o phosphodiester by linkage. Methylation of C is not given here. e = 2'-O-(2-methoxyethyl) (MOE); k = constrained ethyl (cEt); d = 2'-deoxy (DNA)

Molecular target: IRF4
Details: ASO

Sequence | target mRNA inhibition (SK-MEL-28, 4 µM) [%] | target mRNA inhibition (MM.1R, 1 µM) | further results
CTCCACGCGCGGAGGA (sugars k3 d10 k3, PS) | -1 |  | 
AATGGAGCATCCGCTT (sugars k3 d10 k3, PS) | -7 |  | 
AGCAGTGATGTCAGGT (sugars kkddddddddddkeke, PS) |  | 67% and 64% | 
TAGCATGTATGCATTC (sugars k3 d10 k3, PS) | 52 |  | 
AAGTGTCTAAAGTCCC (sugars kkdddddddddekeke, PS) |  | 13% and -1% | 
CAACACGGGAATTTCC (sugars k3 d10 k3, PS) | 55 |  | 
CATAAAAGGTTCCTGT (sugars k3 d10 k3, PS) | 9 |  | 
GCACATCAATGTTTTA (sugars k2 d9 e3 k2, PS) |  | 20% | 
TTACATCTTACTTCCC (sugars k3 d10 k3, PS) | 42 |  | 
AGTATGAGAAACGGCC (sugars k3 d9 k3 e1, PS) |  | 7% | 
CTTGATAAAGGCTGAA (sugars kdddddddddkekeke, PS) |  | 5% | 
ATAATGTTTCAGTGCT (sugars k3 d10 k3, PS) | 76 |  | 
TACTGCTTGAGGTTTT (sugars kkkdddddddddkeke, PS) |  | 7% | 
GTAGTATGAGAAACGG (sugars e1 k2 d9 k2 e2, PS) |  | 29% | 
CAGTGATGTCAGGTTT (sugars kkkdddddddddkeke, PS) |  | 34% | 
AGTTCATGTAAAGTCT (sugars k2 d9 e3 k2, PS) |  | 41% and 30% | 
TATAGAGCATCACTAT (sugars k3 d10 k3, PS) | 41 |  | 
GTATACATCACTGCAG (sugars k3 d10 k3, PS) | 44 |  | 
ATAAACACCTCAGCTG (sugars k3 d10 k3, PS) | 21 |  | 
GACCACAGTGAAGTCG (sugars k3 d10 k3, PS) | 14 |  | 
TCACAGATTAATAGTA (sugars k3 d10 k3, PS) | 23 |  | 
TTTTATGGACCACGCA (sugars k3 d10 k3, PS) | 31 |  | 
GTGATGTCAGGTTTTC (sugars e1 k2 d9 k2 e2, PS) |  | 48% | 
TTATACTGTCTGGTTA (sugars k3 d10 k3, PS) | 44 |  | 
TGTGAAGCATCCTTTC (sugars k3 d10 k3, PS) | 45 |  | 
TGTTACCGATGCTTCA (sugars k2 d9 e3 k2, PS) |  | 31% and 39% | 

Sequence | target mRNA inhibition (SK-MEL-28, 4 µM) [%] | target mRNA inhibition (MM.1R, 1 µM) | further results
CTATAGTGTTCCAGGA (sugars k3 d10 k3, PS) | 66 |  | 
CTGCAAACGACAAGTG (sugars k3 d10 k3, PS) |  | -18% | 
CTCTATAGTGTTCCAG (sugars kddddddddddkekek, PS) |  | 24% | 
CTGGAGAGAACTCATG (sugars k3 d10 k3, PS) | 38 |  | 
AAGAAGCACTGGCATC (sugars k3 d10 k3, PS) | 23 |  | 
GCTCAGCATGCAAGCC (sugars k3 d10 k3, PS) | 0 |  | 
AGCTAAACTCCTAAGT (sugars k3 d10 k3, PS) | 15 |  | 
ACAGTGACTTGCATCC (sugars kkdddddddddekeke, PS) |  | 9% | 
GGAAGTTTACACTGGA (sugars kkdddddddddkekek, PS) |  | 47% | 
CGACAGCTAAAGAACA (sugars k3 d10 k3, PS) | 37 |  | 
GAGGAATGAGCACTCT (sugars k3 d10 k3, PS) | 26 |  | 
AGATGTAAAGATAGGA (sugars k3 d10 k3, PS) | 54 |  | 
CATCAATCATGATATT (sugars k3 d10 k3, PS) | 25 |  | 
TTCACGCACCATTCAG (sugars k3 d10 k3, PS) | 16 |  | 
AAGCATTTTATCATCC (sugars kddddddddddkekek, PS) |  | 14% | 
GTGAAGCATCCTTTCC (sugars k3 d10 k3, PS) | 63 |  | 
ATGGTATTTTTCCGTT (sugars k3 d10 k3, PS) |  | 32% and 43% | 
GCACAGCCCTTGGTTA (sugars k3 d10 k3, PS) |  | 3% | 
GATTTATGTTCCTTAA (sugars k3 d10 k3, PS) | 47 |  | 
TTGATGTGATAGCTGA (sugars kddddddddddkekek, PS) |  | 12% | 
GTTGAACCCATCTTGA (sugars k3 d10 k3, PS) | 16 |  | 
TCCATTGGAGGAGGGT (sugars k3 d10 k3, PS) | 33 |  | 
TTGATGTGATAGCTGA (sugars kdddddddddkekeke, PS) |  | 34% | 
AACGGAAGTTTACACT (sugars k3 d10 k3, PS) | 59 |  | 
ACTGAGATATCCTGCA (sugars k3 d10 k3, PS) | 19 |  | 
CAGTTGTAAATGAGTC (sugars kkdddddddddkekek, PS) |  | 81% | target mRNA inhibition (H929, 0.00067 µM): 22%; target mRNA inhibition (H929, 0.002 µM): 41%; target mRNA inhibition (H929, 0.00667 µM): 67%; target mRNA inhibition (H929, 0.02 µM): 74%; target mRNA inhibition (H929, 0.04 µM): 40%; target mRNA inhibition (KMS11, 0.2 µM): 83% and 93%; target mRNA inhibition (MM.1R, 0.074 µM): 28%; target mRNA inhibition (MM.1R, 0.222 µM): 55%; target mRNA inhibition (MM.1R, 0.666 µM): 78%; target mRNA inhibition (MM.1R, 2 µM): 91%

Sequence | target mRNA inhibition (SK-MEL-28, 4 µM) [%] | target mRNA inhibition (MM.1R, 1 µM) | further results
TGAGAAAGCATGGCTC (sugars k3 d10 k3, PS) | 40 |  | 
TCTATAGTGTTCCAGG (sugars kdddddddddkekeke, PS) |  | 12% | 
GATGTGATAGCTGAGC (sugars kkdddddddddekeke, PS) |  | 53% | 
CTATAGTGTTCCAGGA (sugars k2 d9 e3 k2, PS) |  | 34% | 
AACGAGTTGACACAGG (sugars k3 d10 k3, PS) | 55 |  | 
CCCCATATACATTGAG (sugars k3 d10 k3, PS) | 37 |  | 
GGGTGGCATCATGTAG (sugars k3 d10 k3, PS) |  | 27% | 
CTTACTAGGTGCTTGT (sugars k3 d10 k3, PS) | 38 |  | 
GAAGCATTTTATCATC (sugars kddddddddddkekek, PS) |  | -12% | 
CACTAAAGACTATTAG (sugars k3 d10 k3, PS) | 5 |  | 
GCTGCCACTGGTAACT (sugars k3 d10 k3, PS) | 26 |  | 
CACAAAGCGGGTTCAC (sugars k3 d10 k3, PS) |  | -12% | 
CCAAAGTTACATCCTA (sugars k3 d10 k3, PS) | 39 |  | 
ATGGACCACGCAGCCT (sugars k3 d10 k3, PS) | 39 |  | 
AGTTCATGTAAAGTCT (sugars kddddddddddkekek, PS) |  | 25% and 22% | 
TACTGCTTGAGGTTTT (sugars k3 d9 k3 e1, PS) |  | 13% | 
AAACAGAGACGCGGTG (sugars k3 d10 k3, PS) | 18 |  | 
TTAAAGATGCCAGAGG (sugars k3 d10 k3, PS) | 28 |  | 
TTGAATAGAGGAATGG (sugars k3 d10 k3, PS) | 42 |  | 
AGCAGTGATGTCAGGT (sugars kdddddddddkekeke, PS) |  | 26% and 36% | 
CAGTAAGAGGGCAGTC (sugars k3 d10 k3, PS) | 50 |  | 
ACGCACCATTCAGACA (sugars k3 d10 k3, PS) | -2 |  | 
TTGAAATAAGCTCATC (sugars k3 d10 k3, PS) | 33 |  | 
AAACACCCCTTCTTGT (sugars k3 d10 k3, PS) | -13 |  | 
